{"source": "patent US11840525B2", "about": "“Use of AURKB small-molecule inhibitors for treatment of non-small cell lung cancer” (Nanjing China-Australia Institute of Translational Medicine …, priority 2016, dated 2023)", "key": {"CaoV-3": {"system": "CaoV-3", "test": "Growth inhibition of tumor cells, CaoV-3", "assay_type": "cell-based", "details": "Homo sapiens, read-out: IC50 against tumor cells, CaoV-3", "description": "(§1) Lung cancer cells A549 were separated into a 96-well plate and respectively added with 10 mM TZ47 stock solution to final concentrations of 0 μM, 0.1 μM, 0.5 μM, 1 μM, 2 μM, 4 μM and 8 μM in respective wells. Then the 96-well plate was incubated at 37° C. for 48 h and the growth of the cells was analyzed by a CCK-8 method. […] It can be seen from Table 1 that TZ47 also plays a desirable role in inhibiting the growth of other cancer cells including colorectal cancer, leukemia, liver cancer, melanoma, breast cancer and ovarian cancer."}, "A375": {"system": "A375", "test": "Growth inhibition of tumor cells, A375", "assay_type": "cell-based", "details": "Homo sapiens, A-375; read-out: IC50 against tumor cells, A375", "description": "as §1"}, "A549 cells [1]": {"system": "A549 cells", "test": "Apoptosis of A549 cells by flow cytometry", "assay_type": "cell-based", "details": "flow cytometer", "excerpt": "To elucidate how TZ47 induced the cell death, a flow cytometer was applied to measure and analyze the apoptosis of cells in solvent (DMSO) control group and the treatment groups with different gradients of TZ47 in the use of a cell apoptosis detection kit."}, "HepG-2": {"system": "HepG-2", "test": "Growth inhibition of tumor cells, HepG-2", "assay_type": "cell-based", "details": "Homo sapiens, HepG2; read-out: IC50 against tumor cells, HepG-2", "description": "as §1"}, "A549 cells [2]": {"system": "A549 cells", "test": "Autophagy of A549 cells (LC3 western blot)", "assay_type": "cell-based", "details": "increasing concentration of TZ47"}, "A549 cells [3]": {"system": "A549 cells", "test": "Colony formation assay", "assay_type": "cell-based", "details": "2 μM, 2 weeks"}, "AURKB": {"target": "AURKB (Homo sapiens, UniProt Q96GD4)", "sequence (Q96GD4 1-345 isoform Q96GD4-5)": "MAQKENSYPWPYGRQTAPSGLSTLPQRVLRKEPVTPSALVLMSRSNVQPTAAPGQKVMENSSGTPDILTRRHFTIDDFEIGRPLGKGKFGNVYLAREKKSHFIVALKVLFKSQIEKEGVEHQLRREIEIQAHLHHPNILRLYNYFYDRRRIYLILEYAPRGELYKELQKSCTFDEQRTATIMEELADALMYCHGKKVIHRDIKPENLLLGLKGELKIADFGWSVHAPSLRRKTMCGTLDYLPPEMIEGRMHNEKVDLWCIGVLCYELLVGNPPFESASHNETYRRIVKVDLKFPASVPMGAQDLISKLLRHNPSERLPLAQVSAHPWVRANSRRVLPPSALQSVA", "test": "In vitro phosphorylation (kinase activity) assay with Flag-AURKB and histone H3", "assay_type": "biochemical", "parameters": "made in house; host or cells: 293T cells (transfected with pcDNA-AURKB-Flag)", "details": "2 μM of TZ47, Flag-AURKB, histone H3 substrate", "description": "Thus, it is speculated that the treatment affected the activity of a kinase which was able to phosphorylate the H3S10. The following procedures were conducted to verify whether TZ47 inhibited the activity of AURKB directly. First, prokaryotic expression of AURKB protein and purification were performed and then a microscale thermophoresis (MST) was used to detect the binding between TZ47 and AURKB protein by testing the change of microscale thermophoresis caused by the hydrated layer (generally derived from the change of the structure/conformation of biomolecules) based on the directional movement of particles in a microscopic temperature gradient. […] Flag-tagged AURKB protein was then enriched by M2-flag beads (anti-Flag antibody conjugated) from the lysed liquid of 293T cells and used in the in-vitro kinase activity analysis. It can be seen from FIGS. 6A-6B that the Flag-AURKB protein had kinase activity and can phosphorylate histone H3.\nThe components were mixed according to the above specifications, and reacted at 30° C. for 30 min. After the reaction was completed, the reaction mixture was subjected to western blot assay."}, "MCF-7": {"system": "MCF-7", "test": "Growth inhibition of tumor cells, MCF-7", "assay_type": "cell-based", "details": "Homo sapiens, MCF7; read-out: IC50 against tumor cells, MCF-7", "description": "as §1"}, "HL-60": {"system": "HL-60", "test": "Growth inhibition of tumor cells, HL-60", "assay_type": "cell-based", "details": "Homo sapiens, read-out: IC50 against tumor cells, HL-60", "description": "as §1"}, "GST protein": {"target": "GST protein (Schistosoma japonicum, UniProt P08515)", "sequence (P08515 whole entry)": "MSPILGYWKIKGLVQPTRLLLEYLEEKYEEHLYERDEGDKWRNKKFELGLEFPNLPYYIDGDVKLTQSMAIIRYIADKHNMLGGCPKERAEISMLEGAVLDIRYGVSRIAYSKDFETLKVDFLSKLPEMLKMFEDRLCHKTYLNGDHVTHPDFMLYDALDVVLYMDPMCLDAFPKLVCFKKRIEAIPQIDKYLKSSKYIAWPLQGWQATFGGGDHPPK", "test": "Microscale thermophoresis (MST) binding to control GST protein"}, "SW480": {"system": "SW480", "test": "Growth inhibition of tumor cells, SW480", "assay_type": "cell-based", "details": "Homo sapiens, read-out: IC50 against tumor cells, SW480", "description": "as §1"}, "gene E2F2 in A549 cells": {"system": "gene E2F2 in A549 cells", "test": "E2F2 expression in A549 cells (real-time quantitative PCR, Western blot)", "assay_type": "cell-based"}, "[4]": {"system": "H3S10 phosphorylation in A549 cells", "test": "Western blot of histone modifications in A549 cells", "assay_type": "cell-based"}, "A549 xenograft": {"system": "A549 xenograft", "test": "A549 heterotopic xenograft in nude mice", "assay_type": "in vivo", "details": "150 mg/kg", "description": "The lung-cancer mouse model was constructed to test the effect of TZ47 on tumor proliferation in vivo. First, A549 cells were inoculated into the mice at the left axilla. When the tumor was proliferated to 100 mm^3, the mice were treated with TZ47 (150 mg/kg), and the weight, tumor volume and diet were observed and recorded. In the sixth week, the mice were anesthetized, and the tumors were photographed and recorded. […] The mice were quickly sacrificed through the dislocation of cervical vertebra, and the solid tumor was collected and weighed.\nNext, part of the solid tumor was extracted for the immunohistochemistry assay. […] The solid tumor protein was lysed and analyzed by western blot assay."}, "A549 cells [5]": {"system": "A549 cells", "test": "CCK-8 growth inhibition of A549 lung cancer cells", "assay_type": "cell-based", "details": "Homo sapiens", "description": "as §1"}}, "note": "Where two headings read alike, the source gives them in different places.", "data": [{"smiles": "c1ccc2c(Cc3[nH]c4ccccc4c3Cc3c[nH]c4ccccc34)c[nH]c2c1", "note": "[TZ47]", "values": [{"measurement": "IC50", "setting": "CaoV-3", "value": "4470 ± 120", "unit": "nM"}, {"measurement": "IC50", "setting": "A375", "value": "1400 ± 110", "unit": "nM"}, {"measurement": "apoptosis, 1 μM and 2 μM treatment groups", "setting": "A549 cells [1]; 1 μM and 2 μM", "value": "no significant difference"}, {"measurement": "proportion of early apoptotic cells", "setting": "A549 cells [1]; 4 μM", "value": "significantly increased"}, {"measurement": "IC50", "setting": "HepG-2", "value": "2180 ± 120", "unit": "nM"}, {"measurement": "degree of cell autophagy", "setting": "A549 cells [2]", "value": "increased significantly"}, {"measurement": "colony formation in control cells", "setting": "A549 cells [3]", "value": "significantly inhibited"}, {"measurement": "kinase activity of AURKB", "setting": "AURKB", "value": "completely inhibited"}, {"measurement": "IC50", "setting": "MCF-7", "value": "1870 ± 150", "unit": "nM"}, {"measurement": "IC50", "setting": "HL-60", "value": "91.6 ± 2.2", "unit": "nM"}, {"measurement": "binding to control GST protein", "setting": "GST protein", "value": "did not bind"}, {"measurement": "IC50", "setting": "SW480", "value": "9430 ± 340", "unit": "nM"}, {"measurement": "E2F2 protein level", "setting": "gene E2F2 in A549 cells; Western blot", "value": "reduced"}, {"measurement": "expression level of gene E2F2 (mRNA)", "setting": "gene E2F2 in A549 cells; real-time quantitative PCR", "value": "significantly reduced"}, {"measurement": "degradation of AURKB protein in A549 cells", "setting": "[4]; 48 h", "value": "did not mediate the degradation"}, {"measurement": "labeling of other histone residues close to H3S10", "setting": "[4]; A549 cells", "value": "failed to affect"}, {"measurement": "phosphorylation level of H3S10 in A549 cells", "setting": "[4]; different concentrations, 48 h", "value": "significantly reduced"}, {"measurement": "behavior, diet and weight of the mice versus control group", "setting": "A549 xenograft", "value": "no significant difference"}, {"measurement": "HE staining of solid tumor", "setting": "A549 xenograft; also verified with Ki-67", "value": "large quantity of necrotic tissues"}, {"measurement": "tumor volume versus solvent control group", "setting": "A549 xenograft; sixth week", "value": "significantly smaller"}, {"measurement": "solid tumor weight (tumor growth in vivo)", "setting": "A549 xenograft; tumor collected and weighed", "value": "significant activity in inhibiting the tumor growth"}, {"measurement": "expression level of AURKB protein in solid tumor", "setting": "A549 xenograft; western blot of tumor", "value": "did not affect"}, {"measurement": "H3S10 ph modification level in solid tumor", "setting": "A549 xenograft; western blot of tumor, P<0.05", "value": "significantly reduced"}, {"measurement": "IC50", "setting": "A549 cells [5]; CCK-8, 48 h, read-out: IC50 of TZ47 against A549", "value": 730, "unit": "nM"}, {"measurement": "IC50", "setting": "A549 cells [5]; read-out: IC50 against tumor cells, A549", "value": "730 ± 240", "unit": "nM"}]}]}
